Assay results taken from patent publication US6417202B1, “Pyridylpyrrole compounds useful as interleukin-and TNF antagonists” (Pfizer Inc., priority 1996, dated 2002).

| melting point | Structure (SMILES) |
| --- | --- |
| 178.5 to 179.5 °C | CC(=O)c1c(-c2ccc(C(F)(F)F)cc2)[nH]c(-c2ccncc2)c1C [Example 73, 3-Acetyl-4-methyl-5-(4-pyridyl)-2-(4-trifluoromethylphenyl)-1H-pyrrole] |
| 237 to 238 °C | CCC(=O)c1c(-c2ccncc2)[nH]c(-c2ccncc2)c1C [Example 5, 4-Methyl-3-propanoyl-2,5-di(4-pyridyl)-1H-pyrrole] |
| 218 to 220 °C | CC(=O)c1c(-c2cccc3ccccc23)[nH]c(-c2ccncc2)c1C [Example 61, 3-Acetyl-4-methyl-2-(1-naphthyl)-5-(4-pyridyl)-1H-pyrrole] |
| 209 to 210 °C | Cc1c(-c2ccncc2)[nH]c2c1C(=O)CSC2 [Example 87, 3-Methyl-4-oxo-2-(4-pyridyl)-6-thia-4,5,6,7-tetrahydro-1H-indole] |
| 208 to 209 °C | CC(=O)c1c(C=O)[nH]c(-c2ccncc2)c1C [Example 88, 3Acetyl-2-formyl-4-methyl-5-(4-pyridyl)-1H-pyrrole] |
| 237 to 239 °C | Cc1c(-c2ccncc2)[nH]c2c1C(=O)C(C)(C)CC2 [Example 82 (3,5,5-trimethyl), 4-Oxo-2-(4-pyridyl)-3,5,5-trimethyl-4,5,6,7-tetrahydro-1H-indole] |
| 202 to 204 °C | COC(=O)c1c(-c2ccccc2)[nH]c(-c2ccncc2)c1C [Example 91, Methyl 4-Methyl-2-phenyl-5-(4-pyridyl)pyrrole-3-carboxylate] |
| 218 to 220 °C | CC(=O)c1c(-c2ccco2)[nH]c(-c2ccncc2)c1C [Example 69, 3-Acetyl-2-(2-furyl)-4-methyl-5-(4-pyridyl)-1H-pyrrole] |
| 247 to 248 °C | Cc1c(-c2ccncc2)[nH]c2c1C(=O)CC(C)C2 (stereo not drawn) [Example 86, 3,6-Dimethyl-4-oxo-2-(4-pyridyl)-4,5,6,7-tetrahydro-1H-indole] |
| 212 to 215 °C | Cc1c(-c2ccncc2)[nH]c(-c2ccncc2)c1C(N)=O [Example 40, 3-Aminocarbonyl-4-methyl-2,5-di(4-pyridyl)-1H-pyrrole] |
| 88 to 89 °C | CCCCC(=O)c1c(-c2ccncc2)[nH]c(-c2ccncc2)c1C [Example 6, 4-Methyl-2,5-di(4-pyridyl)-3-pentanoyl-1H-pyrrole] |
| 93 to 95 °C | CCCCc1c(-c2ccncc2)[nH]c(-c2ccncc2)c1C(C)=O [Example 31, 3-Acetyl-4-butyl-2,5-di(4-pyridyl)-1H-pyrrole] |
| 150 to 155 °C | C=Cc1[nH]c(-c2ccncc2)c(C)c1C(C)=O [Example 67, 3-Acetyl-4-methyl-5-(4-pyridyl)-2-vinyl-1H-pyrrole] |
| 208 to 209 °C | CC(=O)c1c(-c2ccncc2)[nH]c(-c2ccccc2)c1C [Example 47, 3-Acetyl-4-methyl-5-phenyl-2-(4-pyridyl)-1H-pyrrole] |
| 231 to 232 °C | CC(=O)c1c(-c2cccs2)[nH]c(-c2ccncc2)c1C [Example 52, 3-Acetyl-4-methyl-5-(4-pyridyl)-2-(2-thienyl)-1H-pyrrole] |
| 236 to 239 °C | CC(=O)c1c(C)[nH]c(-c2ccncc2)c1-c1ccncc1 [Example 42, 3-Acetyl-2-methyl-4,5-di(4-pyridyl)1H-pyrrole] |
| 158 to 159 °C | CC(=O)c1c(-c2cccc(Oc3ccc(F)cc3)c2)[nH]c(-c2ccncc2)c1C [Example 62, 3-Acetyl-2-{3-(4-fluorophenoxy)phenyl}-4-methyl-5-(4-pyridyl)-1H-pyrrole] |
| 182 to 186 °C | CC(=O)c1c(-c2cccnc2)[nH]c(-c2ccncc2)c1C [Example 65, 3-Acetyl-4-methyl-2-(3-pyridyl)-5-(4-pyridyl)-1H-pyrrole] |
